Results as given in US20080176781A1, “Perfumes for linear citrus release in rinse-off systems” (priority 2007, published 2008).

Assay: Odor detection threshold (ODT)
Parameters: unit not given here
Description: Within these defined water-release groups, odorants are then further described based on their experimentally determined odor detection thresholds (ODT) to further characterize the odor impact or olfactive intensity of a citrus and other olfactive types within the herein-described released group of odorants.
Upon their release in headspace, odorants are detected based on their odor detection threshold values. Odor detection thresholds are defined as the lowest concentration of odorants in a selected medium (air or water) to be detected. By including odor values of odorants in the model, one can further improve on the values for predicted performance of once odorants are released from the partition into the air.
Various databases for experimental odor detection threshold values in various partitions such as water and air are available. See Compilation of Odor and Taste Threshold Values Data, American Society for Testing and Materials, F. A. Fazzalari Editor; Booleans Aroma Chemical Information Service (BACIS)).

SMILES	odt (Table 15)	odt (Table 17)	odt (Table 13)
CCC=C(C)C(O)CCCCC (centres unmarked) [UNDECAVERTOL, 4-Methyl-3-decen-5-ol]	26	26	
CC/C=C\CCOC(=O)c1ccccc1O [CIS-3-HEXENYL SALICYLATE]			1.90
C=CCOC(=O)CCC1CCCCC1 [ALLYL CYCLOHEXYL PROPIONATE]			31.00
C=CC(C)(O)CCC=C(C)CC (mixture of isomers) [ETHYL LINALOOL]		120	
CCCCCCCC=O [ALDEHYDE C 8 (OCTANAL), OCTANAL]	4.6	4.6	
CCCCCCC#CC(=O)OC [METHYL OCTINE CARBONATE]		9.7	
CCCCCCCCCCC=CC#N [TRIDECEN 2 NITRILE]	6.7		
CCCCCCCCCC=O [ALDEHYDE C10 (DECANAL), DECANAL]	6.7		
CCCCCCCCCCCC#N [LAURONITRILE]			5.70
